Test results as given in US8796466B2, “Hepatitis C virus inhibitors” (Bristol-Myers Squibb Company, priority 2009, dated 2014).
pEC50: −log10 of the molar value. Where two headings read alike, the source gives them in different places.

Tested on: HCV 1b genotype
Assay: HCV Replicon assay (HCV 1b genotype)
Type: cell-based, Hepatitis C virus
Details: HCV 1b genotype replicon
In short: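 HCV-neo replicon cells, wild-type plus lines carrying NS5A-region mutations, were exposed to compound; luciferase-reporter replicon variants were also used.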

[1] = Hepatitis C virus, class symbol, read-out: Range (EC50 values against HCV 1b)

Row | SMILES | pEC50 [1] | pEC50 (Hepatitis C virus, Effective 50% inhibitory concentration, read-out: 1b EC50) | pEC50 (class symbol, read-out: Range (EC50 values against HCV 1b))
1 | CN(C)[C@@H](C(=O)N1CCC[C@H]1c1ncc(-c2ccc(COc3ccc(-c4cnc([C@@H]5CCCN5C(=O)[C@@H](c5ccccc5)N(C)C)[nH]4)cc3)cc2)[nH]1)c1ccccc1 [OL-7, (1R)-2-((2S)-2-(4-(4-((4-(2-((2S)-1-((2R)-2-(dimethylamino)-2-phenylacetyl)-2-pyrrolidinyl)-1H-imidazol-4-yl)benzyl)oxy)phenyl)-1H-imidazol-2-yl)-1-pyrrolidinyl)-N,N-dimethyl-2-oxo-1-phenylethanamine] | 10.00 to 11.70 |  | 
2 | COC(=O)N[C@@H](C(=O)N1CCC[C@H]1c1nc(-c2ccc(COc3ccc(-c4c[nH]c([C@@H]5CCCN5C(=O)[C@H](NC(=O)OC)c5ccccc5)n4)cc3)cc2)c[nH]1)c1ccccc1 [OL-8, methyl ((1R)-2-((2S)-2-(4-(4-((4-(2-((2S)-1-((2R)-2-((methoxycarbonyl)amino)-2-phenylacetyl)-2-pyrrolidinyl)-1H-imidazol-4-yl)benzyl)oxy)phenyl)-1H-imidazol-2-yl)-1-pyrrolidinyl)-2-oxo-1-phenylethyl)carbamate] | 10.00 to 11.70 |  | 
3 | CN(C)[C@@H](C(=O)N1CCC[C@H]1c1ncc(-c2ccc(CCc3ccc(-c4cnc([C@@H]5CCCN5C(=O)[C@@H](c5ccccc5)N(C)C)[nH]4)cc3)cc2)[nH]1)c1ccccc1 [OL-9, (1R)-2-((2S)-2-(4-(4-(2-(4-(2-((2S)-1-((2R)-2-(dimethylamino)-2-phenylacetyl)-2-pyrrolidinyl)-1H-imidazol-5-yl)phenyl)ethyl)phenyl)-1H-imidazol-2-yl)-1-pyrrolidinyl)-N,N-dimethyl-2-oxo-1-phenylethanamine] | 10.00 to 11.70 |  | 
4 | O=C([C@H](O)c1ccccc1)N1CCC[C@H]1c1nc(-c2ccc(CCc3ccc(-c4c[nH]c([C@@H]5CCCN5C(=O)[C@H](O)c5ccccc5)n4)cc3)cc2)c[nH]1 [OL-10, (1R,1′R)-2,2′-(1,2-ethanediylbis(4,1-phenylene-1H-imidazole-4,2-diyl(2S)-2,1-pyrrolidinediyl))bis(2-oxo-1-phenylethanol)] | 10.00 to 11.70 |  | 
5 | COC(=O)N[C@@H](C(=O)N1CCC[C@H]1c1nc(-c2ccc(CCc3ccc(-c4c[nH]c([C@@H]5CCCN5C(=O)[C@H](NC(=O)OC)c5ccccc5)n4)cc3)cc2)c[nH]1)c1ccccc1 [OL-11, dimethyl (1,2-ethanediylbis(4,1-phenylene-1H-imidazole-4,2-diyl(2S)-2,1-pyrrolidinediyl((1R)-2-oxo-1-phenyl-2,1-ethanediyl)))biscarbamate] | 10.00 to 11.70 |  | 
6 | CCNC(=O)N[C@@H](C(=O)N1CCC[C@H]1c1nc(-c2ccc(CCc3ccc(-c4c[nH]c([C@@H]5CCCN5C(=O)[C@H](NC(=O)NCC)c5ccccc5)n4)cc3)cc2)c[nH]1)c1ccccc1 [OL-12, N′,N′″-(1,2-ethanediylbis(4,1-phenylene-1H-imidazole-4,2-diyl(2S)-2,1-pyrrolidinediyl((1R)-2-oxo-1-phenyl-2,1-ethanediyl)))bis(1-ethylurea)] | 10.00 to 11.70 |  | 
7 | O=C(NC1CCCC1)N[C@@H](C(=O)N1CCC[C@H]1c1nc(-c2ccc(CCc3ccc(-c4cnc([C@@H]5CCCN5C(=O)[C@H](NC(=O)NC5CCCC5)c5ccccc5)[nH]4)cc3)cc2)c[nH]1)c1ccccc1 [OL-13, 1-cyclopentyl-3-((1R)-2-((2S)-2-(4-(4-(2-(4-(2-((2S)-1-((2R)-2-((cyclopentylcarbamoyl)amino)-2-phenylacetyl)-2-pyrrolidinyl)-1H-imidazol-5-yl)phenyl)ethyl)phenyl)-1H-imidazol-2-yl)-1-pyrrolidinyl)-2-oxo-1-phenylethyl)urea] | 10.00 to 11.70 |  | 
8 | CN(C)[C@@H](C(=O)N1CCC[C@H]1c1ncc(-c2ccc(COCc3ccc(-c4cnc([C@@H]5CCCN5C(=O)[C@@H](c5ccccc5)N(C)C)[nH]4)cc3)cc2)[nH]1)c1ccccc1 [OL-14, (1R)-2-((2S)-2-(4-(4-(((4-(2-((2S)-1-((2R)-2-(dimethylamino)-2-phenylacetyl)-2-pyrrolidinyl)-1H-imidazol-5-yl)benzyl)oxy)methyl)phenyl)-1H-imidazol-2-yl)-1-pyrrolidinyl)-N,N-dimethyl-2-oxo-1-phenylethanamine] | 9.00 to 10.00 |  | 
9 | O=C([C@H](O)c1ccccc1)N1CCC[C@H]1c1nc(-c2ccc(COCc3ccc(-c4cnc([C@@H]5CCCN5C(=O)[C@H](O)c5ccccc5)[nH]4)cc3)cc2)c[nH]1 [OL-15, (1R)-2-((2S)-2-(4-(4-(((4-(2-((2S)-1-((2R)-2-hydroxy-2-phenylacetyl)-2-pyrrolidinyl)-1H-imidazol-5-yl)benzyl)oxy)methyl)phenyl)-1H-imidazol-2-yl)-1-pyrrolidinyl)-2-oxo-1-phenylethanol] | 8.00 to 9.00 | 8.96 | 
10 | COC(=O)N[C@@H](C(=O)N1CCC[C@H]1c1nc(-c2ccc(COCc3ccc(-c4c[nH]c([C@@H]5CCCN5C(=O)[C@H](NC(=O)OC)c5ccccc5)n4)cc3)cc2)c[nH]1)c1ccccc1 [OL-16, dimethyl (oxybis(methylene-4,1-phenylene-1H-imidazole-4,2-diyl(2S)-2,1-pyrrolidinediyl((1R)-2-oxo-1-phenyl-2,1-ethanediyl)))biscarbamate] | 10.00 to 11.70 |  | 
11 | CNC(=O)N[C@@H](C(=O)N1CCC[C@H]1c1nc(-c2ccc(COCc3ccc(-c4cnc([C@@H]5CCCN5C(=O)[C@H](NC(=O)NC)c5ccccc5)[nH]4)cc3)cc2)c[nH]1)c1ccccc1 [OL-17, 1-methyl-3-((1R)-2-((2S)-2-(4-(4-(((4-(2-((2S)-1-((2R)-2-((methylcarbamoyl)amino)-2-phenylacetyl)-2-pyrrolidinyl)-1H-imidazol-5-yl)benzyl)oxy)methyl)phenyl)-1H-imidazol-2-yl)-1-pyrrolidinyl)-2-oxo-1-phenylethyl)urea] | 10.00 to 11.70 |  | 
12 | CCNC(=O)N[C@@H](C(=O)N1CCC[C@H]1c1nc(-c2ccc(COCc3ccc(-c4cnc([C@@H]5CCCN5C(=O)[C@H](NC(=O)NCC)c5ccccc5)[nH]4)cc3)cc2)c[nH]1)c1ccccc1 [OL-18, 1-ethyl-3-((1R)-2-((2S)-2-(4-(4-(((4-(2-((2S)-1-((2R)-2-((ethylcarbamoyl)amino)-2-phenylacetyl)-2-pyrrolidinyl)-1H-imidazol-5-yl)benzyl)oxy)methyl)phenyl)-1H-imidazol-2-yl)-1-pyrrolidinyl)-2-oxo-1-phenylethyl)urea] | 10.00 to 11.70 |  | 
13 | O=C(NC1CCCC1)N[C@@H](C(=O)N1CCC[C@H]1c1nc(-c2ccc(COCc3ccc(-c4cnc([C@@H]5CCCN5C(=O)[C@H](NC(=O)NC5CCCC5)c5ccccc5)[nH]4)cc3)cc2)c[nH]1)c1ccccc1 [OL-19, 1-cyclopentyl-3-((1R)-2-((2S)-2-(4-(4-(((4-(2-((2S)-1-((2R)-2-((cyclopentylcarbamoyl)amino)-2-phenylacetyl)-2-pyrrolidinyl)-1H-imidazol-5-yl)benzyl)oxy)methyl)phenyl)-1H-imidazol-2-yl)-1-pyrrolidinyl)-2-oxo-1-phenylethyl)urea] | 8.00 to 9.00 |  | 
14 | CN(C)[C@@H](C(=O)N1CCC[C@H]1c1ncc(-c2ccc(COCc3cccc(-c4cnc([C@@H]5CCCN5C(=O)[C@@H](c5ccccc5)N(C)C)[nH]4)c3)cc2)[nH]1)c1ccccc1 [OL-20, (1R)-2-((2S)-2-(4-(3-(((4-(2-((2S)-1-((2R)-2-(dimethylamino)-2-phenylacetyl)-2-pyrrolidinyl)-1H-imidazol-4-yl)benzyl)oxy)methyl)phenyl)-1H-imidazol-2-yl)-1-pyrrolidinyl)-N,N-dimethyl-2-oxo-1-phenylethanamine] | 9.00 to 10.00 |  | 
15 | O=C([C@H](O)c1ccccc1)N1CCC[C@H]1c1nc(-c2ccc(COCc3cccc(-c4c[nH]c([C@@H]5CCCN5C(=O)[C@H](O)c5ccccc5)n4)c3)cc2)c[nH]1 [OL-21, (1R)-2-((2S)-2-(4-(3-(((4-(2-((2S)-1-((2R)-2-hydroxy-2-phenylacetyl)-2-pyrrolidinyl)-1H-imidazol-4-yl)benzyl)oxy)methyl)phenyl)-1H-imidazol-2-yl)-1-pyrrolidinyl)-2-oxo-1-phenylethanol] | 9.00 to 10.00 |  | 
16 | COC(=O)N[C@@H](C(=O)N1CCC[C@H]1c1nc(-c2ccc(COCc3cccc(-c4c[nH]c([C@@H]5CCCN5C(=O)[C@H](NC(=O)OC)c5ccccc5)n4)c3)cc2)c[nH]1)c1ccccc1 [OL-22] |  |  | 10.00 to 11.70
17 | CNC(=O)N[C@@H](C(=O)N1CCC[C@H]1c1nc(-c2ccc(COCc3cccc(-c4c[nH]c([C@@H]5CCCN5C(=O)[C@H](NC(=O)NC)c5ccccc5)n4)c3)cc2)c[nH]1)c1ccccc1 [OL-23, 1-methyl-3-((1R)-2-((2S)-2-(4-(3-(((4-(2-((2S)-1-((2R)-2-((methylcarbamoyl)amino)-2-phenylacetyl)-2-pyrrolidinyl)-1H-imidazol-4-yl)benzyl)oxy)methyl)phenyl)-1H-imidazol-2-yl)-1-pyrrolidinyl)-2-oxo-1-phenylethyl)urea] | 9.00 to 10.00 |  | 
18 | CCNC(=O)N[C@@H](C(=O)N1CCC[C@H]1c1nc(-c2ccc(COCc3cccc(-c4c[nH]c([C@@H]5CCCN5C(=O)[C@H](NC(=O)NCC)c5ccccc5)n4)c3)cc2)c[nH]1)c1ccccc1 [OL-24, 1-ethyl-3-((1R)-2-((2S)-2-(4-(3-(((4-(2-((2S)-1-((2R)-2-((ethylcarbamoyl)amino)-2-phenylacetyl)-2-pyrrolidinyl)-1H-imidazol-4-yl)benzyl)oxy)methyl)phenyl)-1H-imidazol-2-yl)-1-pyrrolidinyl)-2-oxo-1-phenylethyl)urea] | 10.00 to 11.70 |  | 
19 | O=C(NC1CCCC1)N[C@@H](C(=O)N1CCC[C@H]1c1nc(-c2ccc(COCc3cccc(-c4c[nH]c([C@@H]5CCCN5C(=O)[C@H](NC(=O)NC5CCCC5)c5ccccc5)n4)c3)cc2)c[nH]1)c1ccccc1 [OL-25, 1-cyclopentyl-3-((1R)-2-((2S)-2-(4-(3-(((4-(2-((2S)-1-((2R)-2-((cyclopentylcarbamoyl)amino)-2-phenylacetyl)-2-pyrrolidinyl)-1H-imidazol-4-yl)benzyl)oxy)methyl)phenyl)-1H-imidazol-2-yl)-1-pyrrolidinyl)-2-oxo-1-phenylethyl)urea] | 10.00 to 11.70 |  | 
